The record followed here is PubChem BioAssay (NCI).

Values joined by “and” are separate entries in the source; they are usually repeats but may differ in a detail not shown here. Equal entries are not always repeated.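 Values below derive from 48-hour exposures of cells grown in 96-well plates, with endpoints linearly interpolated between the two concentrations bracketing the appropriate inhibition level. The concentration for 50% growth inhibition is given as GI50. At the TGI there is no net growth.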

Holding throughout (experiment): NCI tumour cell line growth inhibition, 48 h
The test system of test [1] is BT-549 breast.
The test system of test [2] is CCRF-CEM leukemia.
Test [3] relates to HCT-116 colon.
Test [4] concerns HT29 colon.
Test [5] concerns LOX IMVI melanoma.
Test [6] concerns MOLT-4 leukemia.
Test [7] deals with NCI/ADR-RES ovarian.
For test [8], the system named is U251 CNS.
In test [9] the test system is M19-MEL melanoma.
For test [10], the system named is DMS 114 small cell lung.

For `CC(C)(C)OC(=O)N1CCc2c(sc3ncnc(N/N=C/c4cccc5ccccc45)c23)C1`, the GI50 was 8.45 µM in test [1]; 3.6 µM in [2]; 3.22 µM in test [3]; 4.07 µM in test [4]; 3.84 µM in test [5]; 3.25 µM in [6]. The GI50 was 3.74 µM in test [7] and 4.25 µM in test [8]. Moreover, the TGI in test [1] was 72.9 µM; in [2], above 100 µM; in [3], 30.4 µM; in test [4], above 100 µM; in [5] it was 25.5 µM; in [6], 16.9 µM. Also, the TGI in test [7] is 43.8 µM; in test [8] it was above 100 µM.
`COC12C=C(C)C(CC1)CC2C(=O)O` (configuration not stated): the TGI in test [2], in [3], in test [4], in test [5], in test [9] and in test [6] was above 100 µM each time. In [8], this molecule registered a TGI above 100 µM.
Turning to `CC1=NN(C(=O)Nc2ccccc2)C(=O)C2CCC(=O)N12` (configuration not stated), the TGI in test [2], in test [10], in test [3], in [5], in test [9] and in test [6] was above 100 µM each time. In addition, the TGI in test [8] is above 100 µM.
Regarding `O=C1C2c3[nH]c4ccccc4c3C3CCCCCCC3C2C(=O)N1c1ccccc1` (configuration not stated), the TGI in test [2] is 25.6 µM; in test [10], 17.5 µM; in test [4], above 100 µM; in [5], 17.2 µM; in test [9], 37.2 µM; in test [8], 14.9 µM.
On to `O=c1[nH]ncc(Br)c1Br`, for which the GI50 is 3.63 µM in [1]; 2.16 µM in test [2]; 1.8 µM in test [3]; 1.9 µM in test [4]; 1.65 µM in test [5]; 2.41 µM in test [6]. For the same molecule, the GI50 in test [7] was 2.91 µM; in test [8], 1.66 µM. Besides, the TGI in test [1] stood at 12.2 µM; in test [2], 5.35 µM; in [3], 3.42 µM; in [4], 3.5 µM; in test [5], 3.06 µM; in test [6], 5.19 µM. Also, the TGI in test [7] worked out at 7.69 µM; in test [8], 3.02 µM.
Consider `COc1cc(C2NC(=O)c3ccccc3N2)ccc1OCCCCCOc1c(OC)cc(C2=NOC(c3cc(OC)c(OC)c(OC)c3)C2)cc1OC` (configuration not stated), for which the GI50 in [1] was 0.507 µM; in [2], 0.627 µM; in test [3], 0.433 µM; in test [4], above 100 µM; in [5], 16.7 µM; in [6] it was 0.57 µM. Further, the values for the GI50 in test [7] and in test [8] were 12.7 µM and 19.6 µM, respectively. Further, the TGI was above 100 µM in test [1]; above 77.6 µM in [2]; 32.4 µM in [3]; above 100 µM in [4]; above 100 µM in test [5]; above 100 µM in [6]. Moreover, the TGI is above 51.8 µM in test [7] and above 100 µM in test [8].
As for `CS(=O)(=O)c1ccc([C@H]2O[C@@H](CO)C[C@]2(O)c2ccc(S(C)(=O)=O)cc2)cc1`, the GI50 in test [1], in [2], in test [3], in [4], in test [5] and in [6] was above 100 µM each time. In addition, the GI50 in test [7] and in [8] was above 100 µM each time. Moreover, the TGI in [1], in test [2], in test [3], in test [4], in test [5] and in [6] was above 100 µM in each case. Besides, the TGI in test [7] and in test [8] was above 100 µM each time.
Regarding `CC[C@@H]1C(=O)N(C)c2cnc(Nc3ccc(C(=O)NC4CCN(C)CC4)cc3OC)nc2N1C1CCCC1`, the GI50 in [1] is 0.0948 µM and 0.0414 µM; in [2], 0.00236 µM and < 0.01 µM; in [3], 0.00366 µM and < 0.01 µM; in test [4], 0.0036 µM and < 0.01 µM; in test [5], 0.00414 µM and < 0.01 µM; in test [6] it was 0.00387 µM and < 0.01 µM. Besides, the GI50 was 0.351 µM and 0.244 µM in test [7]; 0.00492 µM and < 0.01 µM in test [8]. For the same molecule, the TGI in test [1] was > 10 µM and 12.2 µM; in [2], 2.9 µM and 1.26 µM; in test [3] it was > 4.05 µM and 1.45 µM; in [4], > 4.71 µM and 10.3 µM; in test [5], 1.33 µM and 1.53 µM; in test [6], 1.39 µM and 0.579 µM. Further, the TGI is > 10 µM and 19 µM in [7]; > 10 µM and 7.79 µM in test [8].
Turning to `O=C1CCCCN1CCCCC#Cc1ccccc1C#Cc1ccc([N+](=O)[O-])cc1`, the GI50 is 16.6 µM in [1]; 2.87 µM in test [2]; 4.18 µM in [3]; 3.74 µM in [4]; 2.79 µM in test [5]; 2.79 µM in test [6]. In addition, the results for the GI50 in [7] and in test [8] were 3.35 µM and 3.79 µM, respectively. In addition, the TGI in test [1] was found to be 44.6 µM; in [2], 18.2 µM; in test [3] it was 13.5 µM; in test [4], 59.6 µM; in test [5], 8.87 µM; in [6], 9.22 µM. Also, the values for the TGI in test [7] and in test [8] were 12.3 µM and 14.4 µM, respectively.
For `COc1cc([N+](=O)[O-])cc2c3c(n(C)c12)[C@@]1(C)CCC2c4ccc(OCc5ccccc5)cc4CCC2C1C3` (some centres not stated), the GI50 was above 100 µM in test [1]; above 100 µM in [2]; 78.5 µM in test [3]; 17.7 µM in test [4]; 65 µM in test [5]; above 100 µM in [6]. In addition, the results for the GI50 in test [7] and in [8] were above 100 µM and 37.5 µM, respectively. Further, the TGI in [1] was above 100 µM; in test [2] it was above 100 µM; in test [3] it was above 100 µM; in [4] it was 42.8 µM; in test [5], above 100 µM; in [6], above 100 µM. The TGI in [7] and in [8] was above 100 µM in each case.
